Measurements reported in the CheMixHub viscosity set.

Assay: xn = mol fraction of the nth substance listed

CC[N+](=O)[O-] + CO
viscosity [mPa·s], 101.33 kPa
Settings	293.15 K	303.15 K	313.15 K
x2 = 0.0501	0.657	0.586	0.527
x2 = 0.0999	0.634	0.565	0.508
x2 = 0.1503	0.617	0.549	0.493
x2 = 0.2	0.603	0.536	0.48
x2 = 0.25	0.593	0.526	0.471
x2 = 0.3	0.584	0.517	0.462
x2 = 0.3501	0.576	0.51	0.455
x2 = 0.4	0.57	0.504	0.448
x2 = 0.45	0.564	0.498	0.442
x2 = 0.5	0.559	0.493	0.438
x2 = 0.55	0.556	0.489	0.433
x2 = 0.6	0.553	0.487	0.43
x2 = 0.65	0.552	0.485	0.428
x2 = 0.6999	0.552	0.486	0.428
x2 = 0.75	0.555	0.486	0.427
x2 = 0.8	0.558	0.487	0.428
x2 = 0.85	0.562	0.49	0.43
x2 = 0.9	0.567	0.495	0.434
x2 = 0.95	0.576	0.501	0.437

CCn1ccnc1 + CO
viscosity [mPa·s], 101 kPa
Settings	298.15 K	308.15 K	318.15 K
x1 = 0.0461	0.654	0.5768	0.5141
x1 = 0.1003	0.7495	0.6547	0.5802
x1 = 0.2389	1.012	0.8673	0.7489
x1 = 0.3039	1.133	0.967	0.8304
x1 = 0.3938	1.285	1.085	0.9324
x1 = 0.4588	1.383	1.163	0.9927
x1 = 0.5724	1.525	1.275	1.085
x1 = 0.7001	1.669	1.388	1.177
x1 = 0.794	1.766	1.467	1.24
x1 = 0.8988	1.861	1.536	1.296
x1 = 0.9431	1.89	1.56	1.316

Cc1ccncc1 + CO
298.15 K, 101.33 kPa
Settings	viscosity [mPa·s]
x2 = 0.1671	0.8666
x2 = 0.3035	0.8547
x2 = 0.4194	0.8291
x2 = 0.5171	0.8161
x2 = 0.6328	0.7764
x2 = 0.7977	0.7033
x2 = 0.8892	0.6526
x2 = 0.967	0.5799

c1cc2c3c(cccc3c1)CC2 + CO
viscosity [mPa·s], 101.33 kPa
Settings	298.15 K	303.15 K	308.15 K	313.15 K	318.15 K
x1 = 0.00465	0.5715	0.5301	0.494	0.4598	0.436
x1 = 0.0072	–	0.5362	0.5036	0.4714	0.4405
